This note sets out measurements from US11958831B2, “Pyrazole compounds, pharmaceutical compositions thereof and use thereof” (ARTIVILA (SHENZHEN) INNOVATION CENTER, LTD., priority 2018, dated 2024).

The structures appear in SMILES notation.

IRAK4 kinase, sequence (Q9NWZ3 whole entry): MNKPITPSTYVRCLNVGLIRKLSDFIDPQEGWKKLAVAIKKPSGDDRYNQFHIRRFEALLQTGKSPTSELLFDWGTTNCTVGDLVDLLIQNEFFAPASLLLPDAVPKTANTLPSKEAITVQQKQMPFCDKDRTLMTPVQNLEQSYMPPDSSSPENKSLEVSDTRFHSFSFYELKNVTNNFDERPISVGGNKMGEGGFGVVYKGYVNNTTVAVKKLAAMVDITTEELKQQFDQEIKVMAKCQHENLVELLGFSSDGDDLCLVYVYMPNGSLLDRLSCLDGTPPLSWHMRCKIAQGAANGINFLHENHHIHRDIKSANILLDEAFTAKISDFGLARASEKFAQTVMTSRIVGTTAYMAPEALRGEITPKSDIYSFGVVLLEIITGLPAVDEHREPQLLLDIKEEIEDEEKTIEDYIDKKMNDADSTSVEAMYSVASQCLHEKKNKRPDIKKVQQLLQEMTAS

This test concerns the target IRAK4 kinase (Homo sapiens (Human), UniProt Q9NWZ3). The experiment in a line: IRAK4 kinase activity assay (mobility shift, Km ATP). It is filed as biochemical. The note with it: Km ATP (15.6 μM ATP), 1 nM IRAK4, 60 min room temperature. Here is the method: Inhibitory activity (IC50) of the compounds against IRAK4 kinase under Km ATP was detected through mobility spectrum analysis (MSA). IRAK4 kinase was purchased from Carna (Cat. No.: 09-145, batch No.: 14CBS-0020H), and Kinase Substrate 8 was purchased from GL Biochem (Cat. No.: 112396, batch No.: P171207-MJI112396).
The compounds were prepared with DMSO to 100 times the final reaction concentration and diluted to 10 concentrations in sequence at a 3-fold dilution ratio starting from 1 μM. Then 0.25 μL was transferred to a 384-well plate using Echo550. A 1× kinase buffer (50 mM HEPES, pH=7.5, 0.0015% Brij-35, 10 mM MgCl2, 2 mM DTT) was used to prepare a kinase solution of 2.5 times the final concentration. Then 10 μL of the kinase solution of 2.5 times the final concentration was added to each compound well, shaken and mixed uniformly, and incubated at room temperature for 10 min. A 1× kinase buffer was used to prepare a mixed solution of ATP and substrate Kinase Substrate 8 with a concentration of 25/15 times the final concentration. 15 μL of the mixed solution of ATP and the substrate with a concentration of 25/15 times the final concentration were added to each well (the final concentration of IRAK4 kinase was 1 nM, the final concentration of the substrate was 3 μM, and the final concentration of ATP was 15.6 μM), shaken and mixed uniformly, and reacted at room temperature for 60 min. Finally, 30 μL of stopping solution (100 mM HEPES, pH=7.5, 0.0015% Brij-35, 0.2% Coating Reagent #3, 50 mM EDTA) was added to terminate the reaction. CaliperEZ Reader II was used to read data about conversion rates that was then converted into data about inhibition rates. According to the data about the inhibition rate at each concentration, the half maximal inhibitory concentration (IC50) (Table 1) was calculated by a Logit method.
A word on the IC50: it is the concentration at which inhibition is half-maximal. With `CC(=O)N1CCC(N2CC(n3cc(NC(=O)c4cccc(-c5cnn(C(F)F)c5)n4)c(C(F)F)n3)C2)CC1` [Example 5, N-(1-(1-(1-acetylpiperidin-4-yl)azetidin-3-yl)-3-(difluoromethyl)-1H-pyrazol-4-yl)-6-(1-(difluoromethyl)-1H-pyrazol-4-yl)-2-picolinamide], the concentration for half-maximal inhibition (IC50) was 4.3 nM. With `CC(=O)N1CCC(N2CC(n3cc(NC(=O)c4cccc(-c5cnn(C)c5)n4)c(C(F)F)n3)C2)CC1` [Example 6, N-(1-(1-(1-acetylpiperidin-4-yl)azetidin-3-yl)-3-(difluoromethyl)-1H-pyrazol-4-yl)-6-(1-methyl-1H-pyrazol-4-yl)-2-picolinamide] the figure was 4.2 nM. With `CCn1cc(-c2cccc(C(=O)Nc3cn(C4CN(C5CCN(C(C)=O)CC5)C4)nc3C(F)F)n2)cn1` [Example 7, N-(1-(1-(1-acetylpiperidin-4-yl)azetidin-3-yl)-3-(difluoromethyl)-1H-pyrazol-4-yl)-6-(1-ethyl-1H-pyrazol-4-yl)-2-picolinamide], the IC50 is 3.3 nM. For the compound `CC(=O)N1CCC(N2CC(n3cc(NC(=O)c4cccc(-c5cnn(C(C)C)c5)n4)c(C(F)F)n3)C2)CC1` [Example 8, N-(1-(1-(1-acetylpiperidin-4-yl)azetidin-3-yl)-3-(difluoromethyl)-1H-pyrazol-4-yl)-6-(1-isopropyl-1H-pyrazol-4-yl)-2-picolinamide], the IC50 was determined as 1.9 nM.

Take `CC(=O)N1CCC(N2CC(n3cc(NC(=O)c4cccc(-c5cnn(C6(C#N)CC6)c5)n4)c(C(F)F)n3)C2)CC1` [Example 9, N-(1-(1-(1-acetylpiperidin-4-yl)azetidin-3-yl)-3-(difluoromethyl)-1H-pyrazol-4-yl)-6-(1-(1-cyanocyclopropyl)-1H-pyrazol-4-yl)-2-picolinamide]: the IC50 turned out to be 2.5 nM. In the case of `CC(=O)N1CCC(N2CC(n3cc(NC(=O)c4cccc(-c5cnn(C6(C#N)CCC6)c5)n4)c(C(F)F)n3)C2)CC1` [Example 10, N-(1-(1-(1-acetylpiperidin-4-yl)azetidin-3-yl)-3-(difluoromethyl)-1H-pyrazol-4-yl)-6-(1-(1-cyanocyclobutyl)-1H-pyrazol-4-yl)-2-picolinamide], the IC50 was 2 nM. In the case of `CC(=O)N1CCC(N2CC(n3cc(NC(=O)c4cccc(-c5cnn(C6(CN)CCC6)c5)n4)c(C(F)F)n3)C2)CC1` [Example 11, N-(1-(1-(1-acetylpiperidin-4-yl)azetidin-3-yl)-3-(difluoromethyl)-1H-pyrazol-4-yl)-6-(1-(1-(aminomethyl)cyclobutyl)-1H-pyrazol-4-yl)-2-picolinamide], the IC50 was 1.6 nM. With `CC(=O)N1CCC(N2CC(n3cc(NC(=O)c4cccc(-c5cnn(C6(CO)CCC6)c5)n4)c(C(F)F)n3)C2)CC1` [Example 14, N-(1-(1-(1-acetylpiperidin-4-yl)azetidin-3-yl)-3-(difluoromethyl)-1H-pyrazol-4-yl)-6-(1-(1-(hydroxymethyl)cyclobutyl)-1H-pyrazol-4-yl)-2-picolinamide] the figure was 3.2 nM; with `CC(=O)N1CCC(N2CC(n3cc(NC(=O)c4cccc(-c5cnn(CC(C)(C)O)c5)n4)c(C(F)F)n3)C2)CC1` [Example 15, N-(1-(1-(1-acetylpiperidin-4-yl)azetidin-3-yl)-3-(difluoromethyl)-1H-pyrazol-4-yl)-6-(1-(2-hydroxy-2-methylpropyl)-1H-pyrazol-4-yl)-2-picolinamide], 3.9 nM.

As to `CC(=O)N1CCC(N2CC(n3cc(NC(=O)c4cccc(-c5cnn(C(C)(C)CO)c5)n4)c(C(F)F)n3)C2)CC1` [Example 16, N-(1-(1-(1-acetylpiperidin-4-yl)azetidin-3-yl)-3-(difluoromethyl)-1H-pyrazol-4-yl)-6-(1-(1-hydroxy-2-methylpropyl-2-yl)-1H-pyrazol-4-yl)-2-picolinamide], the IC50 stood at 1.8 nM.

Consider `CN(C)C(=O)N1CCC(N2CC(n3cc(NC(=O)c4cccc(-c5cnn(C(C)(C)CN)c5)n4)c(C(F)F)n3)C2)CC1` [Example 17, 6-(1-(1-Amino-2-methylpropan-2-yl)-1H-pyrazol-4-yl)-N-(3-(difluoromethyl)-1-(1-(1-(dimethylcarbamoyl)piperidin-4-yl)azetidin-3-yl)-1H-pyrazol-4-yl)-2-picolinamide], for which the IC50 was 0.57 nM. Then `COC(=O)N1CCC(N2CC(n3cc(NC(=O)c4cccc(-c5cnn(C(C)(C)CN)c5)n4)c(C(F)F)n3)C2)CC1` [Example 18, Methyl 4-(3-(4-(6-(1-(1-amino-2-methylpropan-2-yl)-1H-pyrazol-4-yl)-2-picolinamide)-3-(difluoromethyl)-1H-pyrazol-1-yl)azetidin-1-yl)piperidine-1-carboxylate], with 0.67 nM; and `CC(=O)N1CCC(N2CC(n3cc(NC(=O)c4cccc(-c5cn[nH]c5)n4)c(C(F)F)n3)C2)CC1` [Example 19, N-(1-(1-(1-acetylpiperidin-4-yl)azetidin-3-yl)-3-(difluoromethyl)-1H-pyrazol-4-yl)-6-(1H-pyrazol-4-yl)-2-picolinamide], with 1.9 nM. With `CN(C)C(=O)N1CCC(N2CC(n3cc(NC(=O)c4cccc(-c5cn[nH]c5)n4)c(C(F)F)n3)C2)CC1` [Example 20, N-(3-(difluoromethyl)-1-(1-(1-(dimethylcarbamoyl)piperidin-4-yl)azetidin-3-yl)-1H-pyrazol-4-yl)-6-(1H-pyrazol-4-yl)-2-picolinamide], the IC50 amounted to 3.2 nM. Then `COC(=O)N1CCC(N2CC(n3cc(NC(=O)c4cccc(-c5cn[nH]c5)n4)c(C(F)F)n3)C2)CC1` [Example 21, Methyl 4-(3-(4-(6-(1H-pyrazol-4-yl)-2-picolinamide)-3-(difluoromethyl)-1H-pyrazol-1-yl)azetidin-1-yl)piperidine-1-carboxylate], with 1.7 nM. With `C=CC(=O)N1CCC(N2CC(n3cc(NC(=O)c4cccc(-c5cn[nH]c5)n4)c(C(F)F)n3)C2)CC1` [Example 22, N-(1-(1-(1-acryloylpiperidin-4-yl)azetidin-3-yl)-3-(difluoromethyl)-1H-pyrazol-4-yl)-6-(1H-pyrazol-4-yl)-2-picolinamide] the figure was 2.5 nM; with `C=CC(=O)N1CCC(N2CC(n3cc(NC(=O)c4cccc(-c5cc[nH]n5)n4)c(C(F)F)n3)C2)CC1` [Example 23, N-(1-(1-(1-acryloylpiperidin-4-yl)azetidin-3-yl)-3-(difluoromethyl)-1H-pyrazol-4-yl)-6-(1H-pyrazol-3-yl)-2-picolinamide], 0.63 nM. With `COC(=O)N1CCC(N2CC(n3cc(NC(=O)c4cccc(-c5cc[nH]n5)n4)c(C(F)F)n3)C2)CC1` [Example 25, Methyl 4-(3-(4-(6-(1H-pyrazol-3-yl)-2-picolinamide)-3-(difluoromethyl)-1H-pyrazol-1-yl)azetidin-1-yl)piperidine-1-carboxylate] the figure was 0.65 nM; with `CCC(=O)N1CCC(N2CC(n3cc(NC(=O)c4cccc(-c5cc[nH]n5)n4)c(C(F)F)n3)C2)CC1` [Example 26, N-(3-(difluoromethyl)-1-(1-(1-propionylpiperidin-4-yl)azetidin-3-yl)-1H-pyrazol-4-yl)-6-(1H-pyrazol-3-yl)-2-picolinamide], 0.54 nM.

Turning to `CN(C)C(=O)N1CCC(N2CC(n3cc(NC(=O)c4cccc(-c5cc[nH]n5)n4)c(C(F)F)n3)C2)CC1` [Example 28, N-(3-(difluoromethyl)-1-(1-(1-(dimethylcarbamoyl)piperidin-4-yl)azetidin-3-yl)-1H-pyrazol-4-yl)-6-(1H-pyrazol-3-yl)-2-picolinamide], the IC50 amounted to 0.68 nM. With `CC(C)C(=O)N1CCC(N2CC(n3cc(NC(=O)c4cccc(-c5cc[nH]n5)n4)c(C(F)F)n3)C2)CC1` [Example 29, N-(3-(difluoromethyl)-1-(1-(1-isobutyrylpiperidin-4-yl)azetidin-3-yl)-1H-pyrazol-4-yl)-6-(1H-pyrazol-3-yl)-2-picolinamide] the figure was 0.81 nM; with `C[C@H](O)C(=O)N1CCC(N2CC(n3cc(NC(=O)c4cccc(-c5cnn(CC(F)(F)F)c5)n4)c(C(F)F)n3)C2)CC1` [Example 30, (S)—N-(3-(difluoromethyl)-1-(1-(1-(2-hydroxypropionyl)piperidin-4-yl)azetidin-3-yl)-1H-pyrazol-4-yl)-6-(1-(2,2,2-trifluoroethyl)-1H-pyrazol-4-yl)-2-picolinamide], 3.3 nM. Then `CS(=O)(=O)N1CCC(N2CC(n3cc(NC(=O)c4cccc(-c5cnn(CC(F)(F)F)c5)n4)c(C(F)F)n3)C2)CC1` [Example 33, N-(3-(difluoromethyl)-1-(1-(1-(methylsulfonyl)piperidin-4-yl)azetidin-3-yl)-1H-pyrazol-4-yl)-6-(1-(2,2,2-trifluoroethyl)-1H-pyrazol-4-yl)-2-picolinamide], with 4.9 nM.
